Results on 10 compounds are retold here after US8598195B2, “Peptidomimetic compounds” (priority 2008, dated 2013).

The target in the first assay is T1, Aβ 1-40 (Homo sapiens, UniProt P05067).
T1 construct: Lyophilized Aβ 1-40 was dissolved to 500 μM in 4 mM NaOH and divided in two parts
T1 sequence (P05067 672-711): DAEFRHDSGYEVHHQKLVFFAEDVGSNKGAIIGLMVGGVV
Kind of assay: Aβ aggregation assay for testing of inhibition of amyloid fibril formation (Thioflavin T fluorescence). Type of assay: biochemical. The settings on record: 100 μM Aβ 1-40, 5% DMSO, 37° C., 24 hours; FIG. 1. The method, then:
Effect of test substances on aggregation of Aβ 1-40 was measured by detecting fluorescence of added Thioflavin T (ThT). The ThT-fluorescence of Aβ 1-40 aggregated in the presence of the indicated substances was compared to the ThT-fluorescence of Aβ 1-40 aggregated in the presence of 5% DMSO.
Aβ Aggregation Assay for Testing of Inhibition Amyloid Fibril Formation
Lyophilized Aβ 1-40 was dissolved to 500 μM in 4 mM NaOH and divided in two parts. One part was diluted to 20 μM in PBS (50 mM phosphate buffer pH 7.4 containing 100 mM NaCl) and coated onto an ELISA 96-well plate (Costar) for 1 h at room temperature. The plate was washed in PBS to remove unbound Aβ 1-40. Substances (in DMSO) were diluted with PBS to different concentrations in the Aβ 1-40 coated ELISA plate. The second part of NaOH-solubilized Aβ 1-40 was thereafter added to each well to yield a final concentration of 100 μM Aβ 1-40 and 5% DMSO. The plate was incubated at 37° C. with agitation (600 rpm) for 24 hours to allow aggregation of Aβ 1-40.
The Aβ-substance mix was after aggregation diluted 10 times with 25 μM Thioflavin T (ThT) in PBS. The ThT-fluorescence was detected immediately by excitation at 450 nm and emission at 482 nm. The ThT-fluorescence of Aβ 1-40 aggregated with substances was compared to the ThT-fluorescence of Aβ 1-40 aggregated in the presence of 5% DMSO.
For the compound `CC(C)CC1=NN=C2C(=O)N3C(SC[C@H]3C(=O)O)C(c3ccccc3)=C12` (stereo partly drawn) [Example 37, (7R)-6,7-dihydro-3-isobutyl-4-phenyl-pyrazolo[4,5-d]thiazolo[3,2-a]pyridine-9-one-7-carboxylic acid], the “Effect on aggregation of Aβ 1-40 (ThT-fluorescence compared to 5% DMSO)” value is “interfere with the formation of amyloid fibrils”. The same measure, in the same setting: the value for `CC(C)Cc1n[nH]c2c(=O)n3c(c(-c4cccc(C(F)(F)F)c4)c12)SC[C@H]3C(=O)O` [Example 21, (7R)-3-isobutyl-9-oxo-4-[3-(trifluoromethyl)phenyl]-1,6,7,9-tetrahydropyrazolo[4,3-d][1,3]thiazolo[3,2-a]pyridine-7-carboxylic acid] was “interfere with the formation of amyloid fibrils”; that for `COc1ccc(C2=NN=C3C(=O)N4C(SC[C@H]4C(=O)O)C(c4ccccc4)=C32)cc1` (stereo partly drawn) [Example 39, (7R)-6,7-dihydro-3-(4-methoxyphenyl)-4-phenyl-pyrazolo[4,5-d]thiazolo[3,2-a]pyridine-9-one-7-carboxylic acid] was “interfere with the formation of amyloid fibrils”.

The target in the next assay is Recombinant human PAI-1 (Homo sapiens, UniProt P05121). Kind of assay: Plasma clot lysis assay for testing of PAI-1 inhibitors. Type of assay: biochemical. To be noted: clot lysis in platelet-poor plasma (50%), PAI-1 10-13 ng/mL, t-PA 34 ng/mL, 37° C.; IC50 = concentration at which a halving of the clot lysis time was reached. The method, then: Plasma Clot Lysis Assay for Testing of PAI-1 Inhibitors
Chain of Recombinant human PAI-1 (P05121 24-402): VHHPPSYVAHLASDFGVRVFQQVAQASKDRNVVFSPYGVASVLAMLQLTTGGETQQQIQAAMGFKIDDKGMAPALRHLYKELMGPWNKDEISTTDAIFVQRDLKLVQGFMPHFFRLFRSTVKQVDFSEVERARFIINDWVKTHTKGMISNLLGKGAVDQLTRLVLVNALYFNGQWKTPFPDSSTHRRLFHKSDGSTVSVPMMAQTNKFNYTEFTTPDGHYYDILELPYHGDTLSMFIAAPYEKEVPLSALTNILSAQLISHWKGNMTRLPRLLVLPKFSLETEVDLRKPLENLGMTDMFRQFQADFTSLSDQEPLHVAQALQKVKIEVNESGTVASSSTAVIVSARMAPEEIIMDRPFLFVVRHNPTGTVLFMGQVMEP
CaCl2, p.a. Stock solution 0.1 M in water.
PAI-1 inhibitors dissolved in 100% DMSO.
Clot Lysis in Platelet-Poor Plasma
Blood from healthy fat-fasting volunteers was collected into 0.13 M trisodium citrate, 9 parts blood to 1 part anticoagulant. The tubes were centrifuged at 2000×g, 20 min, at RT. The supernatant, ie, the platelet poor plasma was pooled, aliquoted and frozen at −85° C. until used. At the day of experiment the plasma was thawed in a water bath and temperated to 37° C. All other constituents, except t-PA, were prewarmed to 37° C. To each well on a microtiter plate, 25 μL CaCl2, 25 μL PAI-1 or 25 μL PAI-1 vehicle, 20 μL saline and 5 μL drug or 5 μL vehicle (100% DMSO) were added. Plasma was mixed with cold t-PA solution in the relation 4 parts plasma with 1 part t-PA, just before adding 125 μL of this mixture to each well. The final concentration was 12.5 mM for CaCl2, 10-13 ng/mL for PAI-1, 34 ng/mL for t-PA, and the compounds were tested at a final concentration range 0.1 nM to 0.25 mM. The final plasma concentration was 50%, as a result of the different additives. The plate, covered with a plastic lid, was placed in a Microplate reader (Molecular Devices, US) and gently shaken. The change in turbidity was immediately monitored as a change in absorbance at 405 nm at 37° C. Data points were collected at intervals of 2 min, during a period of 10 h. After finished reading, the absorbance data were transformed into files containing the time and absorbance values for each well. The clot longevity, ie, the time the clot exists, was determined as the time between clot formation, ie, positive Vmax, and clot lysis, ie, negative Vmax. The effect of the drugs, ie, shortening of the longevity for the clot, was expressed as the concentration at which a halving of the clot lysis time was reached, the IC50 (pIC50=−log IC50). Control clot lysis time, set to 100%, was determined in the presence of PAI-1, and the maximal effect, ie, the shortest lysis time that can be reached under defined conditions in this system, in the absence of PAI-1 was set to 0%.
Compounds having a pIC50 higher than 4 were considered as being active.
Regarding `CC(C)Cc1n[nH]c2c(=O)n3c(c(-c4cccc(C(F)(F)F)c4)c12)SC[C@H]3C(=O)O` [Example 21, (7R)-3-isobutyl-9-oxo-4-[3-(trifluoromethyl)phenyl]-1,6,7,9-tetrahydropyrazolo[4,3-d][1,3]thiazolo[3,2-a]pyridine-7-carboxylic acid], the IC50 was 25.1 µM. As to `CCCc1n[nH]c2c(=O)n3c(c(-c4cccc(C(F)(F)F)c4)c12)SC[C@H]3C(=O)O` [Example 22, (7R)-9-oxo-3-propyl-4-[3-(trifluoromethyl)phenyl]-1,6,7,9-tetrahydropyrazolo[4,3-d][1,3]thiazolo[3,2-a]pyridine-7-carboxylic acid], the IC50 was 20 µM. With `CCCCCCc1n[nH]c2c(=O)n3c(c(-c4ccc(F)c(F)c4)c12)SC[C@H]3C(=O)NS(=O)(=O)c1ccccc1` [Example 29, (7R)-4-(3,4-difluorophenyl)-3-hexyl-9-oxo-N-(phenylsulfonyl)-1,6,7,9-tetrahydropyrazolo[4,3-d][1,3]thiazolo[3,2-a]pyridine-7-carboxamide], the IC50 is 6.31 µM.

Turning to `CCCCCc1n[nH]c2c(=O)n3c(c(-c4cccc(C(F)(F)F)c4)c12)SC[C@H]3C(=O)O` [Example 23, (7R)-9-oxo-3-pentyl-4-[3-(trifluoromethyl)phenyl]-1,6,7,9-tetrahydropyrazolo[4,3-d][1,3]thiazolo[3,2-a]pyridine-7-carboxylic acid], the IC50 is 15.8 µM. With `O=C(O)[C@@H]1CSc2c(-c3cccc(C(F)(F)F)c3)c3cn[nH]c3c(=O)n21` [Example 24, (7R)-9-oxo-4-[3-(trifluoromethyl)phenyl]-1,6,7,9-tetrahydropyrazolo[4,3-d][1,3]thiazolo[3,2-a]pyridine-7-carboxylic acid], the IC50 is 25.1 µM. Consider `CCCCCCc1n[nH]c2c(=O)n3c(c(-c4cccc(C(F)(F)F)c4)c12)SC[C@H]3C(=O)O` [Example 25, (7R)-3-hexyl-9-oxo-4-[3-(trifluoromethyl)phenyl]-1,6,7,9-tetrahydropyrazolo[4,3-d][1,3]thiazolo[3,2-a]pyridine-7-carboxylic acid], for which the IC50 is 12.6 µM. As to `CCCCCCc1n[nH]c2c(=O)n3c(c(-c4ccc(F)c(F)c4)c12)SC[C@H]3C(=O)O` [Example 28, (7R)-4-(3,4-difluorophenyl)-3-hexyl-9-oxo-1,6,7,9-tetrahydropyrazolo[4,3-d][1,3]thiazolo[3,2-a]pyridine-7-carboxylic acid], the 50% inhibitory concentration (IC50) was 50.1 µM. As to `CCn1nc(CC(C)C)c2c(-c3cccc(C(F)(F)F)c3)c3n(c(=O)c21)[C@H](C(=O)O)CS3` [Example 27, (7R)-1-ethyl-3-isobutyl-9-oxo-4-[3-(trifluoromethyl)phenyl]-1,6,7,9-tetrahydropyrazolo[4,3-d][1,3]thiazolo[3,2-a]pyridine-7-carboxylic acid], the IC50 was 79.4 µM.
